Values of other authors as cited in PubChem BioAssay AID1259409 (Chemical Carcinogenesis Research Information System (CCRIS), 2018).

System: rodent chemically induced tumor inhibition, incidence and multiplicity
Assay: CCRIS tumor inhibitor studies

| Compound | tumour outcome (control, treated, inhibition, significance) (Carcinogen: 7,12-DIMETHYLBENZ[A]ANTHRACENE, 57-97-6, Dose [Inhibitor]: 0.17 NMOL IN 0.2 ML ACETONE 1 HR PRIOR TO EACH PROMOTER DOSE FOR 12 WK (STUDY DURATION: 14 WK), Route [Inhibitor]: DERMAL, Species: MOUSE, Strain/Sex: SENCAR/FEMALE, Target Tissue: Type of Lesion: SKIN: PAPILLOMA, Dose [Carcinogen]: 200 NMOL IN 0.2 ML ACETONE ONCE, Promoter: 12-O-TETRADECANOYLPHORBOL-13-ACETATE, 16561-29-8) | tumour outcome (control, treated, inhibition, significance) (Carcinogen: 7,12-DIMETHYLBENZ[A]ANTHRACENE, 57-97-6, Dose [Inhibitor]: 0.17 NMOL IN 0.2 ML ACETONE 1 HR PRIOR TO EACH PROMOTER DOSE FOR 20 WK (STUDY DURATION: 22 WK), Route [Inhibitor]: DERMAL, Species: MOUSE, Strain/Sex: CD-1/FEMALE, Target Tissue: Type of Lesion: SKIN: PAPILLOMA, Dose [Carcinogen]: 200 NMOL IN 0.2 ML ACETONE ONCE, Promoter: 12-O-TETRADECANOYLPHORBOL-13-ACETATE, 16561-29-8) | tumour outcome (control, treated, inhibition, significance) (Carcinogen: 7,12-DIMETHYLBENZ[A]ANTHRACENE, 57-97-6, Dose [Inhibitor]: 1.7 NMOL IN 0.2 ML ACETONE 1 HR PRIOR TO EACH PROMOTER DOSE FOR 12 WK (STUDY DURATION: 14 WK), Route [Inhibitor]: DERMAL, Species: MOUSE, Strain/Sex: SENCAR/FEMALE, Target Tissue: Type of Lesion: SKIN: PAPILLOMA, Dose [Carcinogen]: 200 NMOL IN 0.2 ML ACETONE ONCE, Promoter: 12-O-TETRADECANOYLPHORBOL-13-ACETATE, 16561-29-8) | tumour outcome (control, treated, inhibition, significance) (Carcinogen: 7,12-DIMETHYLBENZ[A]ANTHRACENE, 57-97-6, Dose [Inhibitor]: 1.7 NMOL IN 0.2 ML ACETONE 1 HR PRIOR TO EACH PROMOTER DOSE FOR 20 WK (STUDY DURATION: 22 WK), Route [Inhibitor]: DERMAL, Species: MOUSE, Strain/Sex: CD-1/FEMALE, Target Tissue: Type of Lesion: SKIN: PAPILLOMA, Dose [Carcinogen]: 200 NMOL IN 0.2 ML ACETONE ONCE, Promoter: 12-O-TETRADECANOYLPHORBOL-13-ACETATE, 16561-29-8) | tumour outcome (control, treated, inhibition, significance) (Carcinogen: 7,12-DIMETHYLBENZ[A]ANTHRACENE, 57-97-6, Dose [Inhibitor]: 17 NMOL IN 0.2 ML ACETONE 1 HR PRIOR TO EACH PROMOTER DOSE FOR 12 WK (STUDY DURATION: 14 WK), Route [Inhibitor]: DERMAL, Species: MOUSE, Strain/Sex: SENCAR/FEMALE, Target Tissue: Type of Lesion: SKIN: PAPILLOMA, Dose [Carcinogen]: 200 NMOL IN 0.2 ML ACETONE ONCE, Promoter: 12-O-TETRADECANOYLPHORBOL-13-ACETATE, 16561-29-8) | tumour outcome (control, treated, inhibition, significance) (Carcinogen: 7,12-DIMETHYLBENZ[A]ANTHRACENE, 57-97-6, Dose [Inhibitor]: 17 NMOL IN 0.2 ML ACETONE 1 HR PRIOR TO EACH PROMOTER DOSE FOR 20 WK (STUDY DURATION: 22 WK), Route [Inhibitor]: DERMAL, Species: MOUSE, Strain/Sex: CD-1/FEMALE, Target Tissue: Type of Lesion: SKIN: PAPILLOMA, Dose [Carcinogen]: 200 NMOL IN 0.2 ML ACETONE ONCE, Promoter: 12-O-TETRADECANOYLPHORBOL-13-ACETATE, 16561-29-8) | tumour outcome (control, treated, inhibition, significance) (Carcinogen: AZOXYMETHANE, 25843-45-2, Dose [Inhibitor]: 0, 5 MG/G IN DIET FOR 22 WK BEGINNING 3 D POST LAST CARCINOGEN DOSE (STUDY DURATION: 25 WK), Route [Inhibitor]: ORAL, Species: RAT, Strain/Sex: F344/MALE, Target Tissue: Type of Lesion: DUODENUM: ADENOCARCINOMA, Dose [Carcinogen]: 15 MG/KG BW 2/WK FOR 3 WK, Promoter: NONE USED) | tumour outcome (control, treated, inhibition, significance) (Carcinogen: AZOXYMETHANE, 25843-45-2, Dose [Inhibitor]: 0, 5 MG/G IN DIET FOR 22 WK BEGINNING 3 D POST LAST CARCINOGEN DOSE (STUDY DURATION: 25 WK), Route [Inhibitor]: ORAL, Species: RAT, Strain/Sex: F344/MALE, Target Tissue: Type of Lesion: LARGE BOWEL: ADENOMATOUS POLYP, Dose [Carcinogen]: 15 MG/KG BW 2/WK FOR 3 WK, Promoter: NONE USED) |
| --- | --- | --- | --- | --- | --- | --- | --- | --- |
| C/C(=C\c1ccc2c(c1)C(C)(C)CCC2(C)C)c1ccc(C(=O)O)cc1 | 100%, 93%, 7%, not calculated | 94%, 87%, 8%, not calculated | 100%, 97%, 3%, not calculated | 94%, 69%, 27%, not calculated | 100%, 3%, 97%, not calculated | 94%, 0%, 100%, not calculated |  |  |
| CC(C)=CCCC(C)CCO (stereo not drawn) |  |  |  |  |  |  | 50%, 26%, 48%, not significant | 82%, 69%, 16%, not significant |
